Activity calls are given as the source filed them. The rule behind the calls is not given here.
Columns and labels:
A549 = experiment: Cytotoxicity against human A549 cells expressing high level of topoisomerase I/II measured after 72 hrs by MTT assay; assay type: functional, cell-based; settings: A549, 72 h
A-375 [1] = experiment: Induction of cell cycle arrest in human A-375 cells assessed as accumulation of cells at G1 phase at 80 nM incubated for 24 hrs by PI based flow cytometric analysis (RVB = 52.94%); assay type: functional
A-375 [2] = experiment: Induction of apoptosis in human A-375 cells assessed as increase in expression level of C-caspase-3 measured after 24 hrs by Western blotting analysis; assay type: functional, cell-based; settings: dose 40-120 nM, DDE = dose-dependent effect
HCT-116 = experiment: Antiproliferative activity against doxorubicin sensitive human HCT-116 cells measured after 72 hrs by MTT assay; assay type: functional, cell-based; settings: HCT-116, 72 h
[3] = In vivo acute toxicity in Balb/C mouse assessed as pathological damage in heart at 50 mg/kg, iv administered once per 2 days for 7 days measured 24 hrs after last dose by H and E staining method; assay type: organism-based; settings: 168 h, time 7 day
[4] = Microsomal stability in mouse liver microsomes assessed as clearance measured at 2 ug/ml upto 60 mins in presence of NADPH generating system and UGT incubation system by phase II metabolic stability kit method; assay type: ADME, Microsome; settings: dose 2 µg/ml, read-out: CLH
A-375 [5] = experiment: In vivo induction of apoptosis in human A-375 cells xenografted in BALB/c nude mouse assessed as increase in C-caspase-3 level treated after 7 days of tumor implantation on right flank subcutaneously at 10 to 20 mg/kg, iv administered once per 2 days for 14 days by measuring TUNEL positive cells under a light microscope; assay type: functional, organism-based; settings: dose 10-20 mg/kg, time 14.0 day
A-375 [6] = experiment: Induction of apoptosis in human A-375 cells at 40 nM measured after 24 hrs by Annexin V-FITC and DAPI staining based flow cytometric analysis; assay type: functional
A-375 [7] = experiment: Cytotoxicity against human A-375 cells expressing high level of topoisomerase I/II measured after 72 hrs by MTT assay; assay type: functional, cell-based; settings: A-375, 72 h
[8] = Cmax in Kunming mouse plasma at 10 mg/kg, iv administered as single dose measured after 5 to 360 mins by HPLC analysis; assay type: ADME, organism-based; parameters: dose 10 mg/kg, time upper 360 min, time lower 5 min, route iv
Calf thymus DNA [9] = experiment: Binding affinity to calf thymus DNA assessed as intercalation by measuring hypochromic shift at 432 nm by […]; assay type: nucleic-acid assay; settings: Bos taurus
SH-SY5Y = experiment: Cytotoxicity against human SH-SY5Y cells expressing low level of topoisomerase I/II measured after 72 hrs by MTT assay; assay type: functional, cell-based
MCF7 = experiment: Inhibition of colony formation in human MCF7 cells at 20 to 40 nM incubated for 48 hrs by crystal violet staining method; assay type: functional, cell-based; settings: dose 20-40 nM
A-375 [10] = experiment: Induction of cell cycle arrest in human A-375 cells assessed as accumulation of cells at G2 phase at 40 nM incubated for 24 hrs by PI based flow cytometric analysis (RVB = 20.34%); assay type: functional
[11] = Clearance in Kunming mouse plasma at 10 mg/kg, iv administered as single dose measured after 5 to 360 mins by HPLC analysis; assay type: ADME, organism-based; settings: time 5-360 min
[12] = In vivo acute toxicity in Balb/C mouse assessed as pathological damage in lung at 50 mg/kg, iv administered once per 2 days for 7 days measured 24 hrs after last dose by H and E staining method; assay type: organism-based; settings: 168 h, time 7 day
A-375 [13] = experiment: Induction of apoptosis in human A-375 cells assessed as increase in expression level of C-caspase-8 measured after 24 hrs by Western blotting analysis; assay type: functional, cell-based; settings: dose 40-120 nM, DDE = dose-dependent effect
A-375 [14] = experiment: Inhibition of colony formation in human A-375 cells at 20 to 40 nM incubated for 48 hrs by crystal violet staining method; assay type: functional, cell-based; settings: dose 20-40 nM
A-375 [15] = experiment: Induction of apoptosis in human A-375 cells at 80 nM measured after 24 hrs by Annexin V-FITC and DAPI staining based flow cytometric analysis; assay type: functional
Calf thymus DNA [16] = experiment: Binding affinity to calf thymus DNA assessed as intercalation by measuring hypochromic shift at 292 nm by […]; assay type: nucleic-acid assay; settings: Bos taurus
[17] = AUC in Kunming mouse plasma at 10 mg/kg, iv administered as single dose measured after 5 to 360 mins by HPLC analysis; assay type: ADME, organism-based; parameters: time upper 360 min, time lower 5 min, dose 10 mg/kg, route iv
A-375 [18] = experiment: Induction of apoptosis in human A-375 cells at 80 nM measured after 16 hrs by Annexin V-FITC and DAPI staining based flow cytometric analysis; assay type: functional
A-375 [19] = experiment: Induction of apoptosis in human A-375 cells assessed as […] at 20 to 80 nM measured after 24 hrs by Annexin V-FITC and DAPI staining based flow cytometric analysis; assay type: functional; settings: dose 20-80 nM
[20] = In vivo acute toxicity in Balb/C mouse assessed as pathological damage in kidney at 50 mg/kg, iv administered once per 2 days for 7 days measured 24 hrs after last dose by H and E staining method; assay type: organism-based; settings: 168 h, time 7 day
MDA-MB-231 = experiment: Cytotoxicity against human MDA-MB-231 cells expressing high level of topoisomerase I/II measured after 72 hrs by MTT assay; assay type: functional, cell-based; settings: MDA-MB-231, 72 h
[21] = In vivo acute toxicity in Balb/C mouse assessed as mortality at 10 to 50 mg/kg, iv administered once per 2 days for 7 days; assay type: organism-based; settings: 168 h, dose 10-50 mg/kg, time 7 day
A-375 [22] = experiment: Induction of apoptosis in human A-375 cells at 120 nM measured after 24 hrs by Annexin V-FITC and DAPI staining based flow cytometric analysis; assay type: functional
[23] = target: T1, DNA topoisomerase 1 (Homo sapiens) (UniProt P11387); experiment: Inhibition of DNA topoisomerase I (unknown origin) relaxation activity at 100 uM incubated for 30 mins by chemiDoc system
T1 sequence (whole entry): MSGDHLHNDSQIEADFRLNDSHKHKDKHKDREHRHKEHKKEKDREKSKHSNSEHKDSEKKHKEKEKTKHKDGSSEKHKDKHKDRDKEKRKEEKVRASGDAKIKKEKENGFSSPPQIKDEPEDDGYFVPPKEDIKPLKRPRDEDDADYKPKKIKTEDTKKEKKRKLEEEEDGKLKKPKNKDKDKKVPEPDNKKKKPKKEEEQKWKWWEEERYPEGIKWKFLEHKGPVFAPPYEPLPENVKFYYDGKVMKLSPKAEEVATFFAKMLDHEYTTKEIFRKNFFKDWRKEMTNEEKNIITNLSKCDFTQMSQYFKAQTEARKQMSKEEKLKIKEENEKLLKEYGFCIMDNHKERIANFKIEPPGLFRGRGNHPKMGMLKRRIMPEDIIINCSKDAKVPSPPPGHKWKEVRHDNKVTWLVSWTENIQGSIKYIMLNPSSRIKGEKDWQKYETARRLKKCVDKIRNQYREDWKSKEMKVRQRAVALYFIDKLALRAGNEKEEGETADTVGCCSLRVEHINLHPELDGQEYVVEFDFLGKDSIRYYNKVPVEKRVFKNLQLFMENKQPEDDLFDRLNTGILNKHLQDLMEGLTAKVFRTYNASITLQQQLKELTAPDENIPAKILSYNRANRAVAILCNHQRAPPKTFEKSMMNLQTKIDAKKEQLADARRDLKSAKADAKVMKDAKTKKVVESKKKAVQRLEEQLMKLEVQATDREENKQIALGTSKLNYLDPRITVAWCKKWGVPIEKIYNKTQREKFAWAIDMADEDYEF

In the case of `O=C1c2c[n+]([O-])c3ccccc3c2C(=O)c2c1c1ccccc1n2Cc1cn([C@@H]2C[C@H](O)[C@@H](CO)O2)nn1`, the IC50 (A549) is reported as 120 nM, the Activity (A-375 [1]) is reported as 34.99% and the Activity (A-375 [2]) is reported as “Dde”. For the same compound, the IC50 (HCT-116) was 50 nM, the Activity [3] was “Non-Toxic” and the microsomal CLint at 2 ug/ml [4] was 35 µL/min/mg. The Activity (A-375 [5]) was “Active”, the Activity (A-375 [6]) was 23.26% and the IC50 (A-375 [7]) was 20 nM. The Cmax [8] was 27000 ng/mL, the Activity (Calf thymus DNA [9]) was 32% and the IC50 (SH-SY5Y) was 150 nM. For the same compound, the inhibition (MCF7) was “Active”, the Activity (A-375 [10]) was 27.87% and the clearance [11] was 1 mL/min/kg. The Activity [12] was “Non-Toxic”, the Activity (A-375 [13]) was “Dde” and the inhibition (A-375 [14]) was “Active”. For the same compound, the Activity (A-375 [15]) was 36.21%, the Activity (Calf thymus DNA [16]) was 44% and the AUC [17] was 48000 ng·h/mL. The Activity (A-375 [18]) was 23.78%, the Activity (A-375 [19]) was 38.36% and the Activity [20] was “Non-Toxic”. For the same compound, the IC50 (MDA-MB-231) was 130 nM, the Activity [21] was “Non-Toxic” and the Activity (A-375 [22]) was 55.94%. The inhibition [23] was “Active”.

Reference: ChEMBL document CHEMBL5154929, “Optimization of the Natural Product Calothrixin A to Discover Novel Dual Topoisomerase I and II Inhibitors with Improved Anticancer Activity” (J Med Chem, 2022)
